Test results published in patent US4581231A (priority 1983, dated 1986).
Like-named read-outs stand apart in the source and are kept apart here.

Columns and labels:
[1] = tested on: coliphage .phi.×174
[2] = tested on: Avian influenza virus; details: for Percent Inactivation: Influenza, dry state 20 min, Factor VIII
[3] = tested on: Fibronectin; details: Factorate
Procedure: (§1) Lyophilized Factor VIII (Factorate--Armour) was extracted with chloroform using three different procedures.
(§2) A. 1 gram of Factorate (dry powder) was mixed at 4° C. for 20 minutes with 20 ml of cold chloroform. The chloroform was then removed by filtration and the dry powder was washed on the filter with an additional 10 ml of cold chloroform.
(§3) B. 1 gram of Factorate (dry powder) was mixed with 10 ml of cold chloroform at 4° C. for 10 minutes. The chloroform was removed by filtration and the powder was washed on the filter with 5 ml of cold chloroform. This process was then repeated a second time.
(§4) C. 1 gram of Factorate (dry powder) was mixed with 20 ml of chloroform at room temperature for 20 minutes. The chloroform was removed by filtration and the dry powder was washed on the filter with 10 ml of chloroform at room temperature.

[4] = tested on: Fibrinogen; details: Factorate
Procedure: as §1, §2, §3, §4

[5] = tested on: Factor VIII:c; details: Factorate
Procedure: as §1, §2, §3, §4

[6] = tested on: Avian influenza virus; details: 10% (v/v) chloroform
[7] = tested on: Vaccinia virus; details: for inactivation of vaccinia virus: dry product 20 minutes, Factor 8; for Percent Inactivation: Vaccinia, dry state 20 min, Factor VIII
[8] = tested on: Vaccinia Virus; details: 10% (v/v) chloroform
[9] = tested on: non-A, non-B hepatitis virus (H strain)
[10] = tested on: Vaccinia virus
[11] = tested on: Hepatitis B virus; set-up: species or system rhesus monkeys; details: rhesus monkey, in vivo
[12] = tested on: Polio Virus Type 1; details: 10% (v/v) chloroform
[13] = tested on: Hepatitis B virus; details: in vivo
[14] = preliminary, uncontrolled, 10^-2 dilution of H plasma, 5% v/v chloroform

`ClC(Cl)Cl` [Chloroform, chloroform] was tested, and the “Virus Titer Log10 ID50 /0.1 ml after CHCl3 extraction” value (“Virus Titer Log10 ID50 /0.1 ml” for short) [1] was 9.0 Log10 ID50 /0.1 ml, the “reaction of control virus to chloroform treatment” value (“reaction of control virus” for short) [1] was “essentially unaffected” and the “Percent Inactivation” value ([2]; 4° C.) was 99.8%. For the same compound, the “Percent Inactivation” value ([2]; 20° C.) was 90%, the “completeness of inactivation of avian influenza virus” value ([2]; dry product 20 minutes, Factor 8) was “inactivation was not complete” and the “inactivation of avian influenza virus” value ([2]; dry product 20 minutes, Factor 8, similar conditions of treatment) was 90-99.8%. It also gave a Fibronectin ([3]; 4° C. 1 × Extracted (control 1.11 mg)) of 1.19 mg/mL, a Fibronectin ([3]; 4° C. 2 × Extracted (control 1.11 mg)) of 1.29 mg/mL and a Fibronectin ([3]; Room Temp. Extraction (control 1.11 mg)) of 1.14 mg/mL. It also gave a Fibrinogen ([4]; 4° C. 1 × Extracted (control 8.9 mg)) of 9.3 mg/mL, a Fibrinogen ([4]; 4° C. 2 × Extracted (control 8.9 mg)) of 8.6 mg/mL and a Fibrinogen ([4]; Room Temp. Extraction (control 8.9 mg)) of 9.3 mg/mL. The “Factor VIII Units/ml” value ([5]; 4° C. 1 × Extracted (control 9.1)) was 8.9 Units/ml, the “Factor VIII Units/ml” value ([5]; 4° C. 2 × Extracted (control 9.1)) was 9.3 Units/ml and the “Factor VIII Units/ml” value ([5]; Room Temp. Extraction (control 9.1)) was 9.5 Units/ml. For the same compound, the “reaction of control virus” value [6] was “totally inactivated”, the “inactivation of vaccinia virus” value ([7]; 4°) was “not inactivated” and the “inactivation of vaccinia virus” value ([7]; 20° and 40° C.) was “partially inactivated”. For the same compound, the “Percent Inactivation” value ([7]; 4° C.) was 0%, the “Percent Inactivation” value ([7]; 20° C.) was 70% and the “Percent Inactivation” value ([7]; 40° C.) was 70%. For the same compound, the “Virus Titer Log10 ID50 /0.1 ml” value ([8]; Vaccinia virus in Fetal Calf Serum, 1:100, 10 min, room temperature) was at most 0.5 Log10 ID50 /0.1 ml, the “reaction of control virus” value ([8]; Vaccinia virus) was “totally inactivated” and the “inactivation of 10^4 chimpanzee infectious doses” value ([9]; 10^4 chimpanzee infectious doses of the H strain of NANB) was “inactivated”. For the same compound, the evidence of hepatitis ([9]; chimpanzee 947, following either chloroform-treated or sham-treated H plasma) was “no evidence of hepatitis”, the “biochemical evidence of hepatitis (weekly ALT levels)” value ([9]; chimpanzees 889 and 947, chloroform-treated H plasma, 10% (v/v) chloroform) was “none of these animals developed biochemical evidence of hepatitis” and the incubation period [9, 14] was 9.5 weeks. The “infectivity after chloroform treatment” value [9, 14] was “still infectious”, the “virus titer (indicated by incubation period)” value [9, 14] was “reduced” and the “inactivation of vaccinia virus” value ([10]; after 20 minutes, dry state, room temperature (20° C.)) was 90%. For the same compound, the “inactivation of vaccinia virus” value ([10]; after 2 hours, dry state, room temperature (20° C.)) was 98%, the “inactivation of vaccinia virus” value ([10]; after 4 hours or more, dry state, room temperature (20° C.)) was “completely inactivated” and the “inactivation of vaccinia virus” value ([10]; regardless whether in the liquid or dry state, longer time required when dry) was “completely inactivated”. The “inactivation of the virus” value [11] was “inactivated”, the “Virus Titer Log10 ID50 /0.1 ml” value ([12]; Polio virus type 1 in Fetal Calf Serum, 1:100, 10 min, room temperature) was 6.5 Log10 ID50 /0.1 ml and the “reaction of control virus” value ([12]; poliovirus) was “essentially unaffected”. The “anti-HBs / anti-HBc response” value [13] was “did develop anti-HBs but not anti-HBc” and the “biochemical evidence of hepatitis (weekly ALT levels)” value [13] was “none of these animals developed biochemical evidence of hepatitis”.
`CCOCC` [ether, diethyl ether] was tested, and the “inactivation of the virus” value [11] was “inactivated”.
